# Literature values in patent publication US10421710B2, “Substituted phenethylamines with serotoninergic and/or norepinephrinergic activity” (Auspex Pharmaceuticals, Inc., priority 2007, dated 2019).
# “And” between values parts separate entries of the source, which are not always exact repeats. Equal entries are not always repeated.
# Settings: in humans (b8); species not repeated
row,half-life (T1/2),SMILES
1,~11 h and 11 h,"CN(C)CC(c1ccc(O)cc1)C1(O)CCCCC1 (centres unmarked) [ODV, 0-desmethylvenlafaxine]"
2,~5 h and 3 to 7 h,"COc1ccc(C(CN(C)C)C2(O)CCCCC2)cc1 (racemic) [venlafaxine, 1-[2-dimethylamino-1-(4-methoxy-phenyl)-ethyl]-cyclohexanol]"
